Data from patent US20090124502A1, “USE OF SULFURYL FLUORIDE AS A SPROUT […]” (Dow AgroSciences LLC, priority 2007, published 2009).

Key:
Type in all cases: in vivo, Solanum tuberosum
Russet Burbank potatoes = assay: Sulfuryl fluoride fumigation of stored Russet Burbank potatoes, physical and sprouting observations (Example 2)
Description: A second study was conducted using stored Russet Burbank potatoes. These potatoes were exposed to 3 treatments (O g-h/m3, 300 g-h/m^3, and 500 g-h/m^3) in a Styrofoam™ fumigation chamber. The exposure time was 12 hrs at ambient temperature of approximately 25° C. and relative humidity of 50 percent. The treatments were replicated 3 times. Each replicate had approximately 10 lbs of potatoes.

Russet potatoes = assay: Sulfuryl fluoride fumigation of Russet potatoes, physical and sprouting observations (Example 1); set-up: key to Tuber Firmness: 1 = firm; 2 = slightly spongy; 3 = very spongy, probably rotten
Description: (§1) Russet and red potatoes were purchased from an organic retail store and used for this study. These potatoes were exposed to 4 treatments (0 gram-hour/cubic meter [g-h/m^3], 500 g-h/m^3, 1000 g-h/m^3 and 1500 g-h/m^3) in a Styrofoam™ fumigation chamber. The exposure time was 12 hrs at ambient temperature of approximately 25° C. and relative humidity of 50 percent.

Red potatoes = assay: Sulfuryl fluoride fumigation of Red potatoes, physical and sprouting observations (Example 1); set-up: key to Tuber Firmness: 1 = firm; 2 = slightly spongy; 3 = very spongy, probably rotten
Description: as §1

organic Russet potatoes = assay: Sulfuryl fluoride fumigation of stored organic Russet potatoes, physical and sprouting observations (Example 3); set-up: Avg Length of sprouts: unit not given here
Description: A third study was conducted using stored organic Russet potatoes. These potatoes were exposed to […] (0 g-h/m3, 50 g-h/m^3, 100 g-h/m^3 150 g-h/m^3 and 200 g-h/m^3) in a Styrofoam™ fumigation chamber. The exposure time was 12 hrs at ambient temperature of approximately 25° C. and relative humidity of 50 percent. The treatments were replicated 3 times. Each replicate had approximately 5 lbs of potatoes.

[1] = 300 g-h/m^3, 6 days after exposure, mean of 3 plots
[2] = 300 g-h/m^3, 6 days after exposure, single plots (replicates)
[3] = 300 g-h/m^3, 9 days after exposure, mean
[4] = 500 g-h/m^3, 6 days after exposure, mean of 3 plots
[5] = 500 g-h/m^3, 6 days after exposure, single plots (replicates)
[6] = 500 g-h/m^3, 9 days after exposure, mean
[7] = 500 g-h/m^3, 12 hrs exposure, 1 week after exposure
[8] = 500 g-h/m^3, 12 hrs exposure, 2 weeks after exposure
[9] = 500 g-h/m^3, 12 hrs exposure, 3 weeks after exposure
[10] = 1000 g-h/m^3, 12 hrs exposure, 1 week after exposure
[11] = 1000 g-h/m^3, 12 hrs exposure, 2 weeks after exposure
[12] = 1500 g-h/m^3, 12 hrs exposure, 1 week after exposure
[13] = 1500 g-h/m^3, 12 hrs exposure, 2 weeks after exposure
[14] = 500 g-h/m^3, 12 hrs exposure, 10 weeks after exposure
[15] = 50 g-h/m^3, 7 days after exposure
[16] = 50 g-h/m^3, 21 days after exposure
[17] = 50 g-h/m^3, 31 days after exposure
[18] = 100 g-h/m^3, 7 days after exposure
[19] = 100 g-h/m^3, 21 days after exposure
[20] = 100 g-h/m^3, 31 days after exposure
[21] = 150 g-h/m^3, 7 days after exposure
[22] = 150 g-h/m^3, 21 days after exposure
[23] = 150 g-h/m^3, 31 days after exposure
[24] = 200 g-h/m^3, 7 days after exposure
[25] = 200 g-h/m^3, 21 days after exposure
[26] = 200 g-h/m^3, 31 days after exposure

SMILES: O=S(=O)(F)F [sulfuryl fluoride]
- Avg Length of sprouts (Russet Burbank potatoes; [1]): 0.0 b MM
- Tuber Firmness (Russet Burbank potatoes; [1]): 0.0 a 0-3
- Avg Length of sprouts (Russet Burbank potatoes; [2]): 0.0 MM
- Avg. Number of sprouts (Russet Burbank potatoes; [2]): 0.00
- Tuber Firmness (Russet Burbank potatoes; [2]): 0.0 0-3
- Number of Sprouts (Russet Burbank potatoes; 300 g-h/m^3, 6 days after exposure, single plots (replicates), 10 pounds): 0.0
- Avg Length of sprouts (Russet Burbank potatoes; [3]): 0.0 b
- Avg. Number of sprouts (Russet Burbank potatoes; [3]): 0.00 b
- Number of Sprouts (Russet Burbank potatoes; [3]): 0.0 b
- sprout growth (Russet Burbank potatoes; 300 g-h/m^3 and 500 g-h/m^3 treatments, Table 10 and 11 (6 and 9 days after exposure)): stopped sprouts from growing
- Avg Length of sprouts (Russet Burbank potatoes; [4]): 0.0 b MM
- Tuber Firmness (Russet Burbank potatoes; [4]): 0.0 a 0-3
- Avg Length of sprouts (Russet Burbank potatoes; [5]): 0.0 MM
- Avg. Number of sprouts (Russet Burbank potatoes; [5]): 0.00
- Tuber Firmness (Russet Burbank potatoes; [5]): 0.0 0-3
- Number of Sprouts (Russet Burbank potatoes; 500 g-h/m^3, 6 days after exposure, single plots (replicates), 10 pounds): 0.0
- Avg Length of sprouts (Russet Burbank potatoes; [6]): 0.0 b
- Avg. Number of sprouts (Russet Burbank potatoes; [6]): 0.00 b
- Number of Sprouts (Russet Burbank potatoes; [6]): 0.0 b
- Average length of sprout (Russet potatoes; [7]): <1 mm
- Avg. No. of Sprouts (Russet potatoes; [7]): 1.4
- Tuber Firmness (Russet potatoes; [7]): 1
- Average length of sprout (Russet potatoes; [8]): <1 mm
- Avg. No. of Sprouts (Russet potatoes; [8]): 1.4
- Tuber Firmness (Russet potatoes; [8]): 1
- Average length of sprout (Russet potatoes; [9]): <3 mm
- Avg. No. of Sprouts (Russet potatoes; [9]): 1.4
- Tuber Firmness (Russet potatoes; [9]): 2
- Average length of sprout (Russet potatoes; [10]): <1 mm
- Avg. No. of Sprouts (Russet potatoes; [10]): 0.3
- Tuber Firmness (Russet potatoes; [10]): 1
- Average length of sprout (Russet potatoes; [11]): <1 mm
- Avg. No. of Sprouts (Russet potatoes; [11]): 0.3
- Tuber Firmness (Russet potatoes; [11]): 1
- Average length of sprout (Russet potatoes; [12]): 0 mm
- Avg. No. of Sprouts (Russet potatoes; [12]): 0
- Tuber Firmness (Russet potatoes; [12]): 3
- Average length of sprout (Russet potatoes; [13]): 0 mm
- Avg. No. of Sprouts (Russet potatoes; [13]): 0
- Tuber Firmness (Russet potatoes; [13]): 3
- Average length of sprout (Red potatoes; [7]): 0 mm
- Avg. No. of Sprouts (Red potatoes; [7]): 0
- Tuber Firmness (Red potatoes; [7]): 1
- Average length of sprout (Red potatoes; [8]): 0 mm
- Avg. No. of Sprouts (Red potatoes; [8]): 0
- Tuber Firmness (Red potatoes; [8]): 1
- Avg. No. of Sprouts (Red potatoes; [9]): 1.5
- Tuber Firmness (Red potatoes; [9]): 1
- Avg. No. of Sprouts (Red potatoes; [14]): 1.5
- Tuber Firmness (Red potatoes; [14]): 1
- Average length of sprout (Red potatoes; [10]): 0 mm
- Avg. No. of Sprouts (Red potatoes; [10]): 0
- Tuber Firmness (Red potatoes; [10]): 2
- Average length of sprout (Red potatoes; [11]): 0 mm
- Avg. No. of Sprouts (Red potatoes; [11]): 0
- Tuber Firmness (Red potatoes; [11]): 2
- Average length of sprout (Red potatoes; [12]): 0 mm
- Avg. No. of Sprouts (Red potatoes; [12]): 0
- Tuber Firmness (Red potatoes; [12]): 3
- Average length of sprout (Red potatoes; [13]): 0 mm
- Avg. No. of Sprouts (Red potatoes; [13]): 0
- Tuber Firmness (Red potatoes; [13]): 3
- sprout growth (organic Russet potatoes; 50 g-h/m^3, 21 DAT, compared to 150 and 200 g-h/m^3 treatments): significant sprout growth
- Avg Length of sprouts (organic Russet potatoes; [15]): 1.1
- Avg. Number of sprouts (organic Russet potatoes; [15]): 3.00
- Number of Sprouts (organic Russet potatoes; [15]): 60.0
- Tuber Firmness (organic Russet potatoes; [15]): 0.0 MM
- Avg Length of sprouts (organic Russet potatoes; [16]): 9.1
- Avg. Number of sprouts (organic Russet potatoes; [16]): 6.3
- Number of Sprouts (organic Russet potatoes; [16]): 126.0
- Tuber Firmness (organic Russet potatoes; [16]): 1.0 MM
- Avg Length of sprouts (organic Russet potatoes; [17]): 21.1
- Avg. Number of sprouts (organic Russet potatoes; [17]): 6.3
- Number of Sprouts (organic Russet potatoes; [17]): 126.0
- Tuber Firmness (organic Russet potatoes; [17]): 2.0 MM
- sprout inhibition (organic Russet potatoes; 50 to 200 g-h/m^3, Table 13 (21 days after exposure)): dose dependent
- sprout growth (organic Russet potatoes; 100 g-h/m^3, 21 DAT, compared to 150 and 200 g-h/m^3 treatments): significant sprout growth
- Avg Length of sprouts (organic Russet potatoes; [18]): 1.0
- Avg. Number of sprouts (organic Russet potatoes; [18]): 1.9
- Number of Sprouts (organic Russet potatoes; [18]): 52.0
- Tuber Firmness (organic Russet potatoes; [18]): 0.0 MM
- Avg Length of sprouts (organic Russet potatoes; [19]): 6.5
- Avg. Number of sprouts (organic Russet potatoes; [19]): 2.4
- Number of Sprouts (organic Russet potatoes; [19]): 88.0
- Tuber Firmness (organic Russet potatoes; [19]): 1.0 MM
- Avg Length of sprouts (organic Russet potatoes; [20]): 16.5
- Avg. Number of sprouts (organic Russet potatoes; [20]): 2.4
- Number of Sprouts (organic Russet potatoes; [20]): 88.0
- Tuber Firmness (organic Russet potatoes; [20]): 1.0 MM
- sprout growth (organic Russet potatoes; 150 g-h/m^3, 7 DAT): slight sprout growth
- sprout growth (organic Russet potatoes; 150 g-h/m^3, 21 DAT observations): did not grow further
- Avg Length of sprouts (organic Russet potatoes; [21]): 0.2
- Avg. Number of sprouts (organic Russet potatoes; [21]): 0.3
- Number of Sprouts (organic Russet potatoes; [21]): 17.0
- Tuber Firmness (organic Russet potatoes; [21]): 0.0 MM
- Avg Length of sprouts (organic Russet potatoes; [22]): 0.2
- Avg. Number of sprouts (organic Russet potatoes; [22]): 0.3
- Number of Sprouts (organic Russet potatoes; [22]): 17.0
- Tuber Firmness (organic Russet potatoes; [22]): 0.0 MM
- Avg Length of sprouts (organic Russet potatoes; [23]): 1.2
- Avg. Number of sprouts (organic Russet potatoes; [23]): 0.3
- Number of Sprouts (organic Russet potatoes; [23]): 17.0
- Tuber Firmness (organic Russet potatoes; [23]): 0.0 MM
- Avg Length of sprouts (organic Russet potatoes; [24]): 0
- Avg. Number of sprouts (organic Russet potatoes; [24]): 0
- Number of Sprouts (organic Russet potatoes; [24]): 0
- Tuber Firmness (organic Russet potatoes; [24]): 0.0 MM
- Avg Length of sprouts (organic Russet potatoes; [25]): 0
- Avg. Number of sprouts (organic Russet potatoes; [25]): 0
- Number of Sprouts (organic Russet potatoes; [25]): 0
- Tuber Firmness (organic Russet potatoes; [25]): 0.0 MM
- Avg Length of sprouts (organic Russet potatoes; [26]): 0
- Avg. Number of sprouts (organic Russet potatoes; [26]): 0
- Number of Sprouts (organic Russet potatoes; [26]): 0
- Tuber Firmness (organic Russet potatoes; [26]): 0.0 MM
- phyto-toxic effects (organic Russet potatoes; 200 g-h/m^3, after 31 days): without any phyto-toxic effects
- sprout inhibition (organic Russet potatoes; 200 g-h/m^3, after 31 days): best sprout inhibition
- peel testing, black spot (organic Russet potatoes; all treatments of the study (50 to 200 g-h/m^3)): none of the treatments used in this study produced the black spot
